Data on 1 substance can be found in patent publication US20030095962A1, “Chimeric cell-surface receptors that undergo antigen-induced association” (priority 1997, published 2003).

Experiment [1] has as its system Ba/HEL cells (Ba/F3 cells expressing VH/VL-EpoR chimeric receptors). As to the kind of experiment: Antigen-dependent growth of Ba/HEL cell clones (viable cell count, trypan blue). The format is cell-based, mouse. As to the method:
FIG. 3 is a graph showing the relation between the concentrations of antigen n a culture medium and cell growth rates. Clone G8 was obtained by transforming Ba/F3 cells with the VH/VL EpoR vector constructs and growing in the presence of antigen. In this experiment, separate cultures of Clone G8 was cultured with different constant amounts of the antigen HEL over a 5-day period. Cell proliferation was dose-dependent, and was inducible up to at least about 5 times the rate by including antigen in the culture medium.
The clones of Ba/HEL cells were cultured with various concentrations of HEL to measure the change of the cell number over time. HEL was added in the concentrations of 0, 0.005, 0.05 and 0.5 μg/ml to the RPMI 1640 medium containing 10% FBS, seeded Ba/HEL clones with the initial concentration of 5×10^3 ml, and measured the change in the number of viable cells over time by the cell count method using trypan blue.
Cell growth was conspicuously accelerated with as low as 5 ng/ml antigen. This concentration agrees with the detectable antigen concentration in the immunoassay based on VH/VL association of HyHEL-10 Fv (Ueda et al., Nature Biotech, 14, 1714-1718, 1996). Accordingly, antigen concentration can be measured, that is, immunoassay can be performed using the level of growth of this cell as an index.

Experiment [2] concerns Ba/F3 cells. In words: Growth of Ba/F3 cells without expression vectors in HEL-containing medium without IL-3. As to conditions: RPMI 1640, 10 μg/ml HEL, 10% FBS, no expression vectors introduced. The format is cell-based, mouse. As to the method: Two plasmids, PME-VHER and pME-VLER, produced in Example 1, were introduced into the cell line Ba/F3 which is derived from the interleukin-3 (IL-3) dependent mouse pro-B cells, by using electroporation method. The Ba/F3 cells (2×10^6) in the logarithmic growth period and 5 μg each of above plasmid DNAs linearized with the restriction enzyme KpnI were suspended in 100 μl HBS (Hanks' Buffered Saline: Nissui Pharmacy). Rectangular pulses, 500 volts/150 μsec, were applied 10 times using a gene introduction electric pulse generator (electrodes of 4 mm intervals, Bio-Rad). The cells was kept at room temperatures for five minutes, diluted in 4 ml RPMI 1640 culture media (Nissui Pharmacy) containing 400 μg/ml G418 (Sigma), 8 ng/ml mouse IL-3 (Genzyme) and 10% fetal bovine serum (FBS, Gibco), added into 24-well plates 1 ml each, and cultured for two weeks at 37° C. in the 5% CO2 humidified atmosphere. The resultant colonies were mixed and cultured for another three days in the same media 100 μl cell suspensions were diluted in 2 ml RPMI 1640 medium containing 10 μg/ml hen egg lysozyme (HEL, Seikagaku) and 10% FBS (Gibco) and were subcultured. The Ba/F3 cell line is known to be released from IL-3 dependency by the ectopic expression of the EPO receptor when EPO is added to the medium. […]

In the case of hen egg lysozyme [HEL], in experiment [1] (Ba/HEL clone G8, similar results for all clones inspected), the “Cell growth in relation to the HEL concentration in the medium” value is given as “cell growth depends on the concentration of HEL”. Moreover, the “Antigen concentration at which cell growth was conspicuously accelerated” value in experiment [1] (Ba/HEL clones, RPMI 1640 with 10% FBS, HEL 0, 0.005, 0.05 and 0.5 μg/ml) was no more than 5 ng/mL. For the same substance, the “Cell proliferation inducible by including antigen in the culture medium” value in experiment [1] (Clone G8, different constant amounts of HEL over a 5-day period) was “at least 5 times the rate”. Besides, the “Growth of cells in HEL-containing medium” value in experiment [2] is on record as “did not grow”.
